Experimental data from PubChem BioAssay (NCI).
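Exposure lasted 48 hours, with cells grown in 96-well plates and compounds tested at five concentrations. GI50 marks 50% less growth. TGI is the concentration that stops growth completely.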

Tests used:
Experiment in all cases: inhibition of tumour cell growth, NCI panel, 48 h
RPMI-8226 leukemia = system: RPMI-8226 leukemia
SF-268 CNS = system: SF-268 CNS
HCC-2998 colon = system: HCC-2998 colon
IGROV1 ovarian = system: IGROV1 ovarian
BT-549 breast = system: BT-549 breast
OVCAR-8 ovarian = system: OVCAR-8 ovarian
MOLT-4 leukemia = system: MOLT-4 leukemia
K-562 leukemia = system: K-562 leukemia
RXF 393 renal = system: RXF 393 renal
SW-620 colon = system: SW-620 colon
NCI/ADR-RES ovarian = system: NCI/ADR-RES ovarian
OVCAR-5 ovarian = system: OVCAR-5 ovarian
MCF7 breast = system: MCF7 breast
DU-145 prostate = system: DU-145 prostate
SR leukemia = system: SR leukemia
COLO 205 colon = system: COLO 205 colon
OVCAR-4 ovarian = system: OVCAR-4 ovarian
A549 NSCLC = system: A549 NSCLC
SK-MEL-28 melanoma = system: SK-MEL-28 melanoma
SK-MEL-5 melanoma = system: SK-MEL-5 melanoma
SK-OV-3 ovarian = system: SK-OV-3 ovarian
SF-295 CNS = system: SF-295 CNS
NCI-H522 lung = system: NCI-H522 lung
KM12 colon = system: KM12 colon
A498 renal = system: A498 renal
HCT-116 colon = system: HCT-116 colon
HOP-62 NSCLC = system: HOP-62 NSCLC
MALME-3M melanoma = system: MALME-3M melanoma
OVCAR-3 ovarian = system: OVCAR-3 ovarian
M14 melanoma = system: M14 melanoma
HOP-92 NSCLC = system: HOP-92 NSCLC
HCT-15 colon = system: HCT-15 colon
PC-3 prostate = system: PC-3 prostate
SN12C renal = system: SN12C renal
CCRF-CEM leukemia = system: CCRF-CEM leukemia
UACC-62 melanoma = system: UACC-62 melanoma
U251 CNS = system: U251 CNS
EKVX NSCLC = system: EKVX NSCLC
HL-60(TB) leukemia = system: HL-60(TB) leukemia
786-0 renal = system: 786-0 renal
HS 578T breast = system: HS 578T breast
ACHN renal = system: ACHN renal
CAKI-1 renal = system: CAKI-1 renal
HT29 colon = system: HT29 colon
MDA-MB-435 = system: MDA-MB-435
SNB-75 CNS = system: SNB-75 CNS
NCI-H460 lung = system: NCI-H460 lung
LOX IMVI melanoma = system: LOX IMVI melanoma
TK-10 renal = system: TK-10 renal
SK-MEL-2 melanoma = system: SK-MEL-2 melanoma
UO-31 renal = system: UO-31 renal
UACC-257 melanoma = system: UACC-257 melanoma
SNB-19 CNS = system: SNB-19 CNS
SF-539 CNS = system: SF-539 CNS
NCI-H226 lung = system: NCI-H226 lung
NCI-H23 lung = system: NCI-H23 lung
T-47D breast = system: T-47D breast
MDA-MB-231 breast = system: MDA-MB-231 breast

COC1=C(C)C(=O)N2[C@@H]1[C@H](c1ccccc1)OC21C=CC(=O)C=C1
GI50 (RPMI-8226 leukemia): 1.33 µM | TGI (RPMI-8226 leukemia): 8.44 µM | GI50 (SF-268 CNS): 8.89 µM | TGI (SF-268 CNS): 31.9 µM | GI50 (HCC-2998 colon): 5.86 µM | TGI (HCC-2998 colon): 10.9 µM | GI50 (IGROV1 ovarian): 6.83 µM | TGI (IGROV1 ovarian): 21.7 µM | GI50 (BT-549 breast): 2.97 µM | TGI (BT-549 breast): 9.47 µM | GI50 (OVCAR-8 ovarian): 1.1 µM | TGI (OVCAR-8 ovarian): > 36.5 µM | GI50 (MOLT-4 leukemia): 2.23 µM | TGI (MOLT-4 leukemia): 11 µM | GI50 (K-562 leukemia): 1.11 µM | TGI (K-562 leukemia): > 67 µM | GI50 (RXF 393 renal): 1.42 µM | TGI (RXF 393 renal): 6.26 µM | GI50 (SW-620 colon): 0.923 µM | TGI (SW-620 colon): 2.78 µM | GI50 (NCI/ADR-RES ovarian): 3.36 µM | TGI (NCI/ADR-RES ovarian): > 47.4 µM | GI50 (OVCAR-5 ovarian): 3.78 µM | TGI (OVCAR-5 ovarian): 11.6 µM | GI50 (MCF7 breast): 1.07 µM | TGI (MCF7 breast): 5.39 µM | GI50 (DU-145 prostate): 3.69 µM | TGI (DU-145 prostate): 19.1 µM | GI50 (SR leukemia): 0.673 µM | TGI (SR leukemia): 15.5 µM | GI50 (COLO 205 colon): 2.56 µM | TGI (COLO 205 colon): 7.81 µM | GI50 (OVCAR-4 ovarian): 3.51 µM | TGI (OVCAR-4 ovarian): 16.6 µM | GI50 (A549 NSCLC): 10.8 µM | TGI (A549 NSCLC): 38.9 µM | GI50 (SK-MEL-28 melanoma): 1.2 µM | TGI (SK-MEL-28 melanoma): 6.68 µM | GI50 (SK-MEL-5 melanoma): 5.05 µM | TGI (SK-MEL-5 melanoma): 9.94 µM | GI50 (SK-OV-3 ovarian): > 41.9 µM | TGI (SK-OV-3 ovarian): > 100 µM | GI50 (SF-295 CNS): 15.5 µM | TGI (SF-295 CNS): 46.9 µM | GI50 (NCI-H522 lung): 0.555 µM | TGI (NCI-H522 lung): 1.35 µM | GI50 (KM12 colon): 5.99 µM | TGI (KM12 colon): 12.9 µM | GI50 (A498 renal): 27.4 µM | TGI (A498 renal): > 89.4 µM | GI50 (HCT-116 colon): 0.984 µM | TGI (HCT-116 colon): 3.81 µM | GI50 (HOP-62 NSCLC): 10.8 µM | TGI (HOP-62 NSCLC): 24.9 µM | GI50 (MALME-3M melanoma): 1.08 µM | TGI (MALME-3M melanoma): 4.32 µM | GI50 (OVCAR-3 ovarian): 1.09 µM | TGI (OVCAR-3 ovarian): 3.74 µM | GI50 (M14 melanoma): 4.39 µM | TGI (M14 melanoma): 12.5 µM | GI50 (HOP-92 NSCLC): 2.48 µM | TGI (HOP-92 NSCLC): 7.65 µM | GI50 (HCT-15 colon): 0.697 µM | TGI (HCT-15 colon): 2.21 µM | GI50 (PC-3 prostate): 7.81 µM | TGI (PC-3 prostate): > 32 µM | GI50 (SN12C renal): 3.64 µM | TGI (SN12C renal): 27.7 µM | GI50 (CCRF-CEM leukemia): 0.925 µM | TGI (CCRF-CEM leukemia): 3.87 µM | GI50 (UACC-62 melanoma): 1.35 µM | TGI (UACC-62 melanoma): 5.51 µM | GI50 (U251 CNS): 5.61 µM | TGI (U251 CNS): 11 µM | GI50 (EKVX NSCLC): 10.7 µM | TGI (EKVX NSCLC): > 33.8 µM | GI50 (HL-60(TB) leukemia): 0.922 µM | TGI (HL-60(TB) leukemia): 4.57 µM | GI50 (786-0 renal): 2.86 µM | TGI (786-0 renal): 8.22 µM | GI50 (HS 578T breast): 12.5 µM | TGI (HS 578T breast): > 40.9 µM | GI50 (ACHN renal): 0.658 µM | TGI (ACHN renal): 1.36 µM | GI50 (CAKI-1 renal): 0.804 µM | TGI (CAKI-1 renal): 2.39 µM | GI50 (HT29 colon): 1.28 µM | TGI (HT29 colon): 4.28 µM | GI50 (MDA-MB-435): 1.97 µM | TGI (MDA-MB-435): 7.32 µM | GI50 (SNB-75 CNS): 12.1 µM | TGI (SNB-75 CNS): 50 µM | GI50 (NCI-H460 lung): 8.13 µM | TGI (NCI-H460 lung): 21.8 µM | GI50 (LOX IMVI melanoma): 0.757 µM | TGI (LOX IMVI melanoma): 2.69 µM | GI50 (TK-10 renal): 1.41 µM | TGI (TK-10 renal): 6.29 µM | GI50 (SK-MEL-2 melanoma): 6.92 µM | TGI (SK-MEL-2 melanoma): 19.6 µM | GI50 (UO-31 renal): 1.31 µM | TGI (UO-31 renal): 3.88 µM | GI50 (UACC-257 melanoma): 4.97 µM | TGI (UACC-257 melanoma): 15.5 µM | GI50 (SNB-19 CNS): 42.8 µM | TGI (SNB-19 CNS): > 100 µM | GI50 (SF-539 CNS): 4.73 µM | TGI (SF-539 CNS): 11.5 µM | GI50 (NCI-H226 lung): 9.79 µM | TGI (NCI-H226 lung): > 31.1 µM | GI50 (NCI-H23 lung): 4.07 µM | TGI (NCI-H23 lung): 18.5 µM | GI50 (T-47D breast): 1.73 µM | TGI (T-47D breast): 9.99 µM | GI50 (MDA-MB-231 breast): 2.77 µM | TGI (MDA-MB-231 breast): 9.27 µM
